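Assay format: 96-well plates, 48-hour exposure. Here, GI50 denotes the concentration required for 50% inhibition of growth. TGI is the concentration that stops growth completely.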
Experiments:
Experiment in all cases: growth of human tumour cells (NCI), 48 h
[1] = tested on: 786-0 renal
[2] = tested on: A498 renal
[3] = tested on: A549 NSCLC
[4] = tested on: ACHN renal
[5] = tested on: BT-549 breast
[6] = tested on: CAKI-1 renal
[7] = tested on: CCRF-CEM leukemia
[8] = tested on: COLO 205 colon
[9] = tested on: DU-145 prostate
[10] = tested on: EKVX NSCLC
[11] = tested on: HCC-2998 colon
[12] = tested on: HCT-15 colon
[13] = tested on: HL-60(TB) leukemia
[14] = tested on: HOP-62 NSCLC
[15] = tested on: HOP-92 NSCLC
[16] = tested on: HS 578T breast
[17] = tested on: HT29 colon
[18] = tested on: IGROV1 ovarian
[19] = tested on: KM12 colon
[20] = tested on: LOX IMVI melanoma
[21] = tested on: MALME-3M melanoma
[22] = tested on: MCF7 breast
[23] = tested on: MDA-MB-231 breast
[24] = tested on: MDA-MB-435
[25] = tested on: MOLT-4 leukemia
[26] = tested on: NCI-H226 lung
[27] = tested on: NCI-H23 lung
[28] = tested on: NCI-H460 lung
[29] = tested on: NCI-H522 lung
[30] = tested on: NCI/ADR-RES ovarian
[31] = tested on: OVCAR-3 ovarian
[32] = tested on: OVCAR-4 ovarian
[33] = tested on: OVCAR-5 ovarian
[34] = tested on: OVCAR-8 ovarian
[35] = tested on: PC-3 prostate
[36] = tested on: RPMI-8226 leukemia
[37] = tested on: RXF 393 renal
[38] = tested on: SF-268 CNS
[39] = tested on: SF-295 CNS
[40] = tested on: SF-539 CNS
[41] = tested on: SK-MEL-2 melanoma
[42] = tested on: SK-MEL-28 melanoma
[43] = tested on: SK-MEL-5 melanoma
[44] = tested on: SK-OV-3 ovarian
[45] = tested on: SN12C renal
[46] = tested on: SNB-19 CNS
[47] = tested on: SNB-75 CNS
[48] = tested on: SW-620 colon
[49] = tested on: T-47D breast
[50] = tested on: TK-10 renal
[51] = tested on: U251 CNS
[52] = tested on: UACC-257 melanoma
[53] = tested on: UACC-62 melanoma
[54] = tested on: UO-31 renal

CCCN1C/C(=C\c2ccc(O)c(OC)c2)C(=O)/C(=C/c2ccc(O)c(OC)c2)C1
GI50 [1]: > 100 µM
TGI [1]: > 100 µM
GI50 [2]: > 100 µM
TGI [2]: > 100 µM
GI50 [3]: > 100 µM
TGI [3]: > 100 µM
GI50 [4]: > 100 µM
TGI [4]: > 100 µM
GI50 [5]: > 100 µM
TGI [5]: > 100 µM
GI50 [6]: > 100 µM
TGI [6]: > 100 µM
GI50 [7]: > 100 µM
TGI [7]: > 100 µM
GI50 [8]: > 100 µM
TGI [8]: > 100 µM
GI50 [9]: > 100 µM
TGI [9]: > 100 µM
GI50 [10]: > 100 µM
TGI [10]: > 100 µM
GI50 [11]: > 100 µM
TGI [11]: > 100 µM
GI50 [12]: > 100 µM
TGI [12]: > 100 µM
GI50 [13]: > 100 µM
TGI [13]: > 100 µM
GI50 [14]: > 100 µM
TGI [14]: > 100 µM
GI50 [15]: > 100 µM
TGI [15]: > 100 µM
GI50 [16]: > 100 µM
TGI [16]: > 100 µM
GI50 [17]: > 100 µM
TGI [17]: > 100 µM
GI50 [18]: > 100 µM
TGI [18]: > 100 µM
GI50 [19]: > 100 µM
TGI [19]: > 100 µM
GI50 [20]: > 100 µM
TGI [20]: > 100 µM
GI50 [21]: > 100 µM
TGI [21]: > 100 µM
GI50 [22]: > 100 µM
TGI [22]: > 100 µM
GI50 [23]: > 100 µM
TGI [23]: > 100 µM
GI50 [24]: > 100 µM
TGI [24]: > 100 µM
GI50 [25]: > 100 µM
TGI [25]: > 100 µM
GI50 [26]: > 100 µM
TGI [26]: > 100 µM
GI50 [27]: > 100 µM
TGI [27]: > 100 µM
GI50 [28]: > 100 µM
TGI [28]: > 100 µM
GI50 [29]: > 100 µM
TGI [29]: > 100 µM
GI50 [30]: > 100 µM
TGI [30]: > 100 µM
GI50 [31]: > 100 µM
TGI [31]: > 100 µM
GI50 [32]: > 100 µM
TGI [32]: > 100 µM
GI50 [33]: > 100 µM
TGI [33]: > 100 µM
GI50 [34]: > 100 µM
TGI [34]: > 100 µM
GI50 [35]: > 100 µM
TGI [35]: > 100 µM
GI50 [36]: > 100 µM
TGI [36]: > 100 µM
GI50 [37]: > 100 µM
TGI [37]: > 100 µM
GI50 [38]: > 100 µM
TGI [38]: > 100 µM
GI50 [39]: > 100 µM
TGI [39]: > 100 µM
GI50 [40]: > 100 µM
TGI [40]: > 100 µM
GI50 [41]: > 100 µM
TGI [41]: > 100 µM
GI50 [42]: > 100 µM
TGI [42]: > 100 µM
GI50 [43]: > 100 µM
TGI [43]: > 100 µM
GI50 [44]: > 100 µM
TGI [44]: > 100 µM
GI50 [45]: > 100 µM
TGI [45]: > 100 µM
GI50 [46]: > 100 µM
TGI [46]: > 100 µM
GI50 [47]: > 100 µM
TGI [47]: > 100 µM
GI50 [48]: > 100 µM
TGI [48]: > 100 µM
GI50 [49]: > 100 µM
TGI [49]: > 100 µM
GI50 [50]: > 100 µM
TGI [50]: > 100 µM
GI50 [51]: > 100 µM
TGI [51]: > 100 µM
GI50 [52]: > 100 µM
TGI [52]: > 100 µM
GI50 [53]: > 100 µM
TGI [53]: > 100 µM
GI50 [54]: > 100 µM
TGI [54]: > 100 µM
